Patent US20250115864A1, “A FERMENTATION MEDIUM COMPRISING SULPHUR” (Evonik Operations GmbH, priority 2021, published 2025)

Assays:
Type in all cases: cell-based
Clostridium ljungdahlii = assay: Formation of acetic acid and ethanol from synthesis gas with Clostridium ljungdahlii and refeeding of cysteine
Procedure: For the biotransformation of hydrogen and carbon dioxide to acetic acid and ethanol the homoacetogenic bacterium Clostridium ljungdahlii was cultivated on synthesis gas with refeeding of cysteine. All cultivation steps were carried out under anaerobic conditions in pressure-resistant glass bottles that can be closed airtight with a butyl rubber stopper.
The chemolithoautotrophic cultivation was carried out in a 1 L pressure-resistant glass bottle at 37° C., 100 rpm and a ventilation rate of 3 L/h with a premixed gas with 67% H2, 33% CO2 in an open water bath shaker for 69 h till OD600nm>0.4. The gas was discharged into the medium through a sparger with a pore size of 10 μm, which was mounted in the center of the reactors. Then the cell suspension was centrifuged and the cell pellet was resuspended in fresh CGF1 Medium.
For the production phase, as many washed cells from the preculture of C. ljungdahlii as necessary for an OD600nm of 0.2 were added to 100 ml mineral medium (CGF1 medium, pH 6.5, 1.4 g/L KOH, 2 g/L (NH4)2SO4, 1 g/L KH2PO4, 1 g/L K2HPO4, 10 mg/L FeSO4×7H2O, 3.8 mg/L MnSO4×1H2O, 246 mg/L MgSO4×7H2O, aerated for 30 min with a premixed gas with 67% H2 and 33% CO2). […] The cultivation was carried out in 500 mL pressure-resistant glass bottles at 37° C., 150 rpm in an open water bath shaker for 163 h which were aerated to an overpressure of 0.8 bar with a premixed gas with 67% H2, 33% CO2 one time a day. The pH was hold >5.0 by intermittent additions of a 140 g/L KOH solution. During the cultivation several 5 mL samples were taken to determinate OD600nm, pH und product formation. […] The determination of the product concentrations was performed by semiquantitative 1H-NMR spectroscopy. As an internal quantification standard sodium trimethylsilylpropionate (T (M) SP) was used.

[1] = tested on: Clostridium autoethanogenum together with Clostridium kluyveri in a co-culture; assay: Continuous co-culture of Clostridium autoethanogenum and Clostridium kluyveri with low potassium thioacetate concentration
Procedure: (§1) The homoacetogenic bacterium Clostridium autoethanogenum was cultivated together with the chain elongating bacterium Clostridium kluyveri in a co-culture on synthesis gas in a mineral medium with potassium thioacetate as reduced sulfur source. The cultivation was carried out under anaerobic conditions in a pressure-resistant stainless steel bubble column loop reactor.
(§2) The cultivation was run at 37° C. and an overpressure of 2 bar as a continuous fermentation with continuous feeding of 300 L/h of a mixture of water, substrates, salts, trace elements and vitamins. The pH was automatically hold at 5.80 with ammonia feeding. The outlet stream of 300 L/h out of the fermenter was for 98.2% as permeate with cell retention and for 1.8% as purge without cell retention.
(§3) The culture was previously inoculated with cells from fresh cultures of C. autoethanogenum and C. kluyveri and was already running since >10.000 h full continuously as stable coculture at an optical density (OD600nm) of ˜ 9.0. Fresh medium was continuously fed into the reactor and fermentation broth continuously removed from the reactor with a dilution rate of 2.8 d^−1. During cultivation several 5 mL samples were taken to determinate OD600nm, PH und product formation. The determination of the product concentrations was performed by semiquantitative 1H-NMR spectroscopy. As an internal quantification standard sodium trimethylsilylpropionate (T (M) SP) was used.

[2] = tested on: Clostridium autoethanogenum together with Clostridium kluyveri in a co-culture; assay: Continuous co-culture of Clostridium autoethanogenum and Clostridium kluyveri with high potassium thioacetate concentration
Procedure: as §1, §2
as §3, with “>13.000” for “>10.000”, “11.8.” for “9.0.”

[3] = culture C (refed with L-cysteine-hydrochloride) versus cultures A and B, production phase
[4] = 10.69 mg/L potassium thioacetate in media feed (before decrease)
[5] = 50 h after decreasing potassium thioacetate in media feed to 10% (1.69 mg/L)
[6] = 10.69 mg/L potassium thioacetate in media feed (before increase)
[7] = 50 h, 100 h and 150 h after increasing potassium thioacetate in media feed to 300% (32.07 mg/L)

## Cl.N[C@@H](CS)C(=O)O [L-cysteine, L-cysteine-hydrochloride]
Clostridium ljungdahlii; culture A, initial 400 mg/L L-cysteine-hydrochloride, no refeed, 0 h
  OD(600 nm): 0.206
Clostridium ljungdahlii; culture A, initial 400 mg/L L-cysteine-hydrochloride, no refeed, 18.75 h
  OD(600 nm): 0.232
Clostridium ljungdahlii; culture A, initial 400 mg/L L-cysteine-hydrochloride, no refeed, 41.5 h
  OD(600 nm): 0.293
Clostridium ljungdahlii; culture A, initial 400 mg/L L-cysteine-hydrochloride, no refeed, 46.75 h
  OD(600 nm): 0.281
Clostridium ljungdahlii; culture A, initial 400 mg/L L-cysteine-hydrochloride, no refeed, 65.5 h
  OD(600 nm): 0.324
Clostridium ljungdahlii; culture A, initial 400 mg/L L-cysteine-hydrochloride, no refeed, 69.5 h
  OD(600 nm): 0.366
Clostridium ljungdahlii; culture A, initial 400 mg/L L-cysteine-hydrochloride, no refeed, 89.75 h
  OD(600 nm): 0.324
Clostridium ljungdahlii; culture A, initial 400 mg/L L-cysteine-hydrochloride, no refeed, 163.5 h
  OD(600 nm): 0.339
Clostridium ljungdahlii; culture B, initial 200 mg/L L-cysteine-hydrochloride, no refeed, 0 h
  OD(600 nm): 0.197
Clostridium ljungdahlii; culture B, initial 200 mg/L L-cysteine-hydrochloride, no refeed, 18.75 h
  OD(600 nm): 0.261
Clostridium ljungdahlii; culture B, initial 200 mg/L L-cysteine-hydrochloride, no refeed, 41.5 h
  OD(600 nm): 0.279
Clostridium ljungdahlii; culture B, initial 200 mg/L L-cysteine-hydrochloride, no refeed, 46.75 h
  OD(600 nm): 0.269
Clostridium ljungdahlii; culture B, initial 200 mg/L L-cysteine-hydrochloride, no refeed, 65.5 h
  OD(600 nm): 0.271
Clostridium ljungdahlii; culture B, initial 200 mg/L L-cysteine-hydrochloride, no refeed, 69.5 h
  OD(600 nm): 0.259
Clostridium ljungdahlii; culture B, initial 200 mg/L L-cysteine-hydrochloride, no refeed, 89.75 h
  OD(600 nm): 0.241
Clostridium ljungdahlii; culture B, initial 200 mg/L L-cysteine-hydrochloride, no refeed, 163.5 h
  OD(600 nm): 0.237
Clostridium ljungdahlii; [3]
  cell growth: stronger cell growth than cultures A and B
  concentrations of acetate and ethanol: increased more than in culture A and B
Clostridium ljungdahlii; culture C, initial 200 mg/L L-cysteine-hydrochloride, refed 200 mg/L after 18, 41, 65, 89 h, 0 h
  OD(600 nm): 0.209
Clostridium ljungdahlii; culture C, initial 200 mg/L L-cysteine-hydrochloride, refed 200 mg/L after 18, 41, 65, 89 h, 18.75 h
  OD(600 nm): 0.245
Clostridium ljungdahlii; culture C, initial 200 mg/L L-cysteine-hydrochloride, refed 200 mg/L after 18, 41, 65, 89 h, 41.5 h
  OD(600 nm): 0.339
Clostridium ljungdahlii; culture C, initial 200 mg/L L-cysteine-hydrochloride, refed 200 mg/L after 18, 41, 65, 89 h, 46.75 h
  OD(600 nm): 0.335
Clostridium ljungdahlii; culture C, initial 200 mg/L L-cysteine-hydrochloride, refed 200 mg/L after 18, 41, 65, 89 h, 65.5 h
  OD(600 nm): 0.399
Clostridium ljungdahlii; culture C, initial 200 mg/L L-cysteine-hydrochloride, refed 200 mg/L after 18, 41, 65, 89 h, 69.5 h
  OD(600 nm): 0.392
Clostridium ljungdahlii; culture C, initial 200 mg/L L-cysteine-hydrochloride, refed 200 mg/L after 18, 41, 65, 89 h, 89.75 h
  OD(600 nm): 0.431
Clostridium ljungdahlii; culture C, initial 200 mg/L L-cysteine-hydrochloride, refed 200 mg/L after 18, 41, 65, 89 h, 95.5 h
  OD(600 nm): 0.434
Clostridium ljungdahlii; culture C, initial 200 mg/L L-cysteine-hydrochloride, refed 200 mg/L after 18, 41, 65, 89 h, 163.5 h
  OD(600 nm): 0.481

## CC(=O)[S-].[K+] [potassium thioacetate]
[1]; [4]
  CO2 turnover: 70%
  OD(600 nm): 9.0
  steady state concentration acetate: ~0.90 g/L
  steady state concentration butyrate: ~0.91 g/L
  steady state concentration ethanol: about 3.27 g/L
  steady state concentration hexanoate: ~3.61 g/L
[1]; [5]
  CO2 turnover: 50%
  OD(600 nm): 7.60
  ethanol concentration: 4.37 g/L
  steady state concentration acetate: 0.50 g/L
  steady state concentration butyrate: 0.53 g/L
  steady state concentration hexanoate: 2.41 g/L
[2]; [6]
  steady state concentration acetate: ~1.10 g/L
  steady state concentration butyrate: ~1.08 g/L
  steady state concentration ethanol: about 2.67 g/L
  steady state concentration hexanoate: ~3.75 g/L
[2]; 10.69 mg/L potassium thioacetate in media feed (before increase), stable coculture
  optical density (OD600nm): ~11.8
[2]; [7]
  CO2 turnover: 70%
  OD(600 nm): 11.80
  steady state concentrations of the educts and products: stayed on the same level
